Where “and” joins values, the source holds several entries; their conditions need not be identical. Equal entries are not always repeated. Inconclusive results and toxic doses are left out.
Tested on: BDF1 mice, P388 leukemia ip, median survival T/C
Experiment: NCI In Vivo Anticancer Drug Screen. Data for tumor model P388 Leukemia (intraperitoneal) in B6D2F1 (BDF1) mice
Settings: endpoint: median survival time, higher = longer survival
Summary of the method: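 Antitumour effect was judged in vivo: survival in drug-treated mice, normalised to that of vehicle-dosed controls, gives the reported T/C.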

[1] = dose: 100.0 mg/kg/injection, schedule: Q04DX003 (ip), vehicle: saline with Tween-80
[2] = dose: 200.0 mg/kg/injection, schedule: Q01DX009 (ip), vehicle: saline with Tween-80
[3] = dose: 200.0 mg/kg/injection, schedule: Q04DX003 (ip), vehicle: saline with Tween-80
[4] = dose: 400.0 mg/kg/injection, schedule: Q01DX009 (ip), vehicle: saline with Tween-80
[5] = dose: 400.0 mg/kg/injection, schedule: Q04DX003 (ip), vehicle: saline with Tween-80
[6] = dose: 50.0 mg/kg/injection, schedule: Q04DX003 (ip), vehicle: saline with Tween-80
[7] = dose: 12.5 mg/kg/injection, schedule: Q01DX009 (ip), vehicle: saline
[8] = dose: 25.0 mg/kg/injection, schedule: Q01DX009 (ip), vehicle: saline
[9] = dose: 50.0 mg/kg/injection, schedule: Q04DX003 (ip), vehicle: saline
[10] = dose: 100.0 mg/kg/injection, schedule: Q01DX009 (ip), vehicle: Klucel (hydroxypropylcellulose) (HPC)
[11] = dose: 200.0 mg/kg/injection, schedule: Q01DX009 (ip), vehicle: Klucel (hydroxypropylcellulose) (HPC)
[12] = dose: 50.0 mg/kg/injection, schedule: Q01DX009 (ip), vehicle: saline with Tween-80
[13] = dose: 100.0 mg/kg/injection, schedule: Q01DX009 (ip), vehicle: saline with Tween-80
[14] = dose: 50.0 mg/kg/injection, schedule: Q01DX009 (ip), vehicle: saline

In the case of `CC(=O)CC1c2c(ccc3c2OCO3)-c2ccc3cc4c(cc3c2N1C)OCO4` (stereo not drawn), the T/C (dose: 5.0 mg/kg/injection, schedule: Q01DX009 (ip), vehicle: Klucel (hydroxypropylcellulose) (HPC)) was 95 % of control, the T/C (dose: 10.0 mg/kg/injection, schedule: Q01DX009 (ip), vehicle: Klucel (hydroxypropylcellulose) (HPC)) was 110 % of control and the T/C (dose: 13.0 mg/kg/injection, schedule: Q01DX010 (ip), vehicle: saline) was 100 % of control. For the same compound, the T/C (dose: 20.0 mg/kg/injection, schedule: Q01DX009 (ip), vehicle: Klucel (hydroxypropylcellulose) (HPC)) was 120 % of control, the T/C (dose: 20.0 mg/kg/injection, schedule: Q01DX010 (ip), vehicle: saline) was 105 % of control and the T/C (dose: 30.0 mg/kg/injection, schedule: Q01DX010 (ip), vehicle: saline) was 110 % of control. For the same compound, the T/C (dose: 40.0 mg/kg/injection, schedule: Q01DX009 (ip), vehicle: Klucel (hydroxypropylcellulose) (HPC)) was 115 % of control.
`CCO/C=C(\C#N)C(=O)O` was tested, and the T/C [1] was 88 % of control, the T/C [2] was 111 % of control and the T/C [3] was 88 % of control. For the same compound, the T/C [4] was 119 % of control and the T/C [5] was 92 % of control.
In the case of `CC(C)(C)P(c1ccccc1)c1ccccc1`, the T/C [6] was 111 % of control, the T/C [1] was 107 % of control and the T/C [3] was 96 % of control.
`CC1(C)N=C(N)N=C(N)N1c1ccc(OCCCOc2ccc(S(=O)(=O)F)cc2)c(Cl)c1` was tested, and the T/C (dose: 0.66 mg/kg/injection, schedule: Q01DX009 (ip), vehicle: saline) was 108 % of control, the T/C (dose: 0.99 mg/kg/injection, schedule: Q01DX009 (ip), vehicle: saline) was 104 % of control and the T/C [7] was 165 % of control. The T/C [8] was 115 % of control, the T/C (dose: 33.0 mg/kg/injection, schedule: Q04DX003 (ip), vehicle: saline) was 109 % of control and 120 % of control and the T/C [9] was 114 % of control and 120 % of control. The T/C (dose: 75.0 mg/kg/injection, schedule: Q04DX003 (ip), vehicle: saline) was 114 % of control.
With `CCOC(=O)C(=CN(C)c1ccc([N+](=O)[O-])cc1)C(=O)OCC` the T/C (dose: 50.0 mg/kg/injection, schedule: Q01DX009 (ip), vehicle: other) was 100 % of control, the T/C (dose: 100.0 mg/kg/injection, schedule: Q01DX009 (ip), vehicle: other) was 103 % of control and the T/C (dose: 200.0 mg/kg/injection, schedule: Q01DX009 (ip), vehicle: other) was 109 % of control.
`C(CCC1CO1)CC1CO1` (stereo not drawn) was tested, and the T/C (dose: 50.0 mg/kg/injection, schedule: Q04DX005 (ip), vehicle: saline with Tween-80) was 115 % of control and the T/C (dose: 200.0 mg/kg/injection, schedule: Q04DX002 (ip), vehicle: saline with Tween-80) was 173 % of control.
With `O=C(NC(CSC(=O)c1ccccc1)C(=O)O)OCc1ccccc1` (stereo not drawn) the T/C (dose: 50.0 mg/kg/injection, schedule: Q01DX009 (ip), vehicle: Klucel (hydroxypropylcellulose) (HPC)) was 95 % of control, the T/C [10] was 95 % of control and the T/C [11] was 100 % of control.
For `COc1cccc2c1C(=O)c1c(O)c3c(c(O)c1C2=O)CC(O)(/C(C)=N/Nc1ccc(Cl)cc1)CC3OC1CC(N)C(O)C(C)O1` (stereo not drawn), the T/C (dose: 4.08 mg/kg/injection, schedule: Q04DX003 (ip), vehicle: water) was 158 % of control and the T/C (dose: 6.8 mg/kg/injection, schedule: Q04DX003 (ip), vehicle: water) was 157 % of control.
For `CC1(C)N=C(N)N=C(N)N1c1ccc(CCc2ccccc2)cc1`, the T/C (dose: 22.0 mg/kg/injection, schedule: Q01DX009 (ip), vehicle: saline with Tween-80) was 104 % of control, the T/C (dose: 33.0 mg/kg/injection, schedule: Q01DX009 (ip), vehicle: saline with Tween-80) was 100 % of control and the T/C [12] was 112 % of control.
For `CN(C)CCNc1ccc(O)c2sc3ccccc3c(=O)c12`, the T/C (dose: 25.0 mg/kg/injection, schedule: Q04DX003 (ip), vehicle: saline with Tween-80) was 96 % of control, the T/C [6] was 109 % of control and the T/C [1] was 97 % of control.
`O=[N+]([O-])c1ccc(Sc2cccs2)c([N+](=O)[O-])c1` was tested, and the T/C [13] was 100 % of control, the T/C [1] was 104 % of control and the T/C [2] was 95 % of control. The T/C [3] was 95 % of control, the T/C [4] was 108 % of control and the T/C [5] was 100 % of control.
For `CCN(CC)CCCC(C)Nc1ccnc2cc(Cl)ccc12` (stereo not drawn), the T/C (dose: 6.2 mg/kg/injection, schedule: Q01DX010 (ip), vehicle: saline) was 100 % of control, the T/C [7] was 113 % of control and the T/C (dose: 12.5 mg/kg/injection, schedule: Q01DX010 (ip), vehicle: saline) was 90 % of control. The T/C [8] was 109 % of control, the T/C (dose: 25.0 mg/kg/injection, schedule: Q01DX010 (ip), vehicle: saline) was 95 % of control and the T/C [14] was 109 % of control. For the same compound, the T/C (dose: 50.0 mg/kg/injection, schedule: Q01DX010 (ip), vehicle: saline) was 100 % of control and the T/C (dose: 75.0 mg/kg/injection, schedule: Q01DX009 (ip), vehicle: saline) was 104 % of control.
For `c1ccc(CCSc2ccccc2)cc1`, the T/C [1] was 113 % of control, the T/C [3] was 109 % of control and the T/C [5] was 118 % of control.
In the case of `CN1/C(=C/C=C/N=C(C#N)C#N)C(C)(C)c2ccccc21`, the T/C [12] was 104 % of control, the T/C [13] was 96 % of control and the T/C [2] was 96 % of control.
With `O=CNNC(=O)c1ccccn1` the T/C [12] was 96 % of control, the T/C [14] was 100 % of control and the T/C [9] was 100 % of control. The T/C [13] was 96 % of control, the T/C (dose: 100.0 mg/kg/injection, schedule: Q01DX009 (ip), vehicle: saline) was 104 % of control and the T/C [1] was 113 % of control. The T/C (dose: 100.0 mg/kg/injection, schedule: Q04DX003 (ip), vehicle: saline) was 100 % of control, the T/C [2] was 96 % of control and the T/C [3] was 109 % of control. For the same compound, the T/C (dose: 200.0 mg/kg/injection, schedule: Q04DX003 (ip), vehicle: saline) was 100 % of control.
For `C/C=C1\C(=O)O[C@@]23C=C[C@H]4C(C(=O)OC)=CO[C@@H](O[C@H]12)[C@H]43`, the T/C (dose: 0.75 mg/kg/injection, schedule: Q01DX009 (ip), vehicle: saline) was 100 % of control, the T/C (dose: 2.5 mg/kg/injection, schedule: Q01DX009 (ip), vehicle: saline) was 115 % of control and the T/C (dose: 165.0 micrograms/kg/injection, schedule: Q01DX009 (ip), vehicle: Klucel (hydroxypropylcellulose) (HPC)) was 105 % of control. The T/C (dose: 620.0 micrograms/kg/injection, schedule: Q01DX009 (ip), vehicle: Klucel (hydroxypropylcellulose) (HPC)) was 115 % of control and the T/C (dose: 1250.0 micrograms/kg/injection, schedule: Q01DX009 (ip), vehicle: Klucel (hydroxypropylcellulose) (HPC)) was 105 % of control.
In the case of `CCc1oc(=O)c(Cc2c(OC(C)=O)cc(OC(C)=O)c3c2OC(c2ccccc2)CC3=O)c(OC(C)=O)c1C` (stereo not drawn), the T/C (dose: 1.0 mg/kg/injection, schedule: Q01DX009 (ip), vehicle: Klucel (hydroxypropylcellulose) (HPC)) was 99 % of control, the T/C (dose: 2.0 mg/kg/injection, schedule: Q01DX009 (ip), vehicle: Klucel (hydroxypropylcellulose) (HPC)) was 92 % of control and the T/C (dose: 4.0 mg/kg/injection, schedule: Q01DX009 (ip), vehicle: Klucel (hydroxypropylcellulose) (HPC)) was 93 % of control. For the same compound, the T/C (dose: 8.0 mg/kg/injection, schedule: Q01DX009 (ip), vehicle: Klucel (hydroxypropylcellulose) (HPC)) was 92 % of control.
For `CCC(=O)Oc1c(Cl)c(Cl)c(C#N)c(Cl)c1Cl`, the T/C [1] was 108 % of control and the T/C [3] was 116 % of control.
With `Cc1cc(-c2ccc(NC(=O)c3cccc([N+](=O)[O-])c3)c(C)c2)ccc1NC(=O)c1cccc([N+](=O)[O-])c1` the T/C (dose: 50.0 mg/kg/injection, schedule: Q01DX005 (ip), vehicle: saline with Tween-80) was 96 % of control, the T/C (dose: 100.0 mg/kg/injection, schedule: Q01DX005 (ip), vehicle: saline with Tween-80) was 94 % of control and the T/C (dose: 200.0 mg/kg/injection, schedule: Q01DX005 (ip), vehicle: saline with Tween-80) was 105 % of control.
With `CC(O)CN1CC(C)N(CC(C)O)CC1C` (stereo not drawn) the T/C (dose: 12.5 mg/kg/injection, schedule: Q04DX003 (ip), vehicle: saline) was 104 % of control, the T/C (dose: 25.0 mg/kg/injection, schedule: Q04DX003 (ip), vehicle: saline) was 100 % of control and the T/C [9] was 100 % of control.
With `Cc1noc(C)c1CC1(Cc2c(C)noc2C)C(=O)CCC2(C)CCCC=C21` (stereo not drawn) the T/C (dose: 50.0 mg/kg/injection, schedule: Q04DX003 (ip), vehicle: Klucel (hydroxypropylcellulose) (HPC)) was 91 % of control, the T/C [10] was 104 % of control and the T/C (dose: 100.0 mg/kg/injection, schedule: Q04DX003 (ip), vehicle: Klucel (hydroxypropylcellulose) (HPC)) was 104 % of control. The T/C [11] was 95 % of control and the T/C (dose: 200.0 mg/kg/injection, schedule: Q04DX003 (ip), vehicle: Klucel (hydroxypropylcellulose) (HPC)) was 91 % of control.
In the case of `COC(CNC(=O)Nc1cccnc1)[CH2][Hg][Cl]` (stereo not drawn), the T/C (dose: 12.5 mg/kg/injection, schedule: Q01DX009 (ip), vehicle: saline with Tween-80) was 90 % of control, the T/C (dose: 25.0 mg/kg/injection, schedule: Q01DX009 (ip), vehicle: saline with Tween-80) was 104 % of control and the T/C [12] was 100 % of control.

From PubChem BioAssay AID328 (DTP/NCI, 2004)
